Reference: US11985932B2 (priority 2019, dated 2024)

Key:
[1] = system: rice blast fungus (Magnaporthe grisea strain K-06); format: in vivo; details: for hyphal elongation of rice blast fungus in the leaf sheath / blast resistance: progeny (third generation; R2) of treated lines, 150 μM (salicylic acid 1 mM), vs Nipponbare, FIG. 11B; for hyphal elongation of Magnaporthe oryzae in the leaf sheath / disease resistance: regenerated rice individuals, callus treated at 150 μM (salicylic acid 1 mM), P<0.05, FIG. 11A
[2] = system: WRKY45 gene; assay: RNA-seq of probenazole-treated rice callus (WRKY45 induction); format: cell-based, Oryza sativa cv. Nipponbare; details: 7th day after probenazole treatment (50, 100 or 150 μM) on dedifferentiation-inducing medium
[3] = system: Botrytis cinerea; assay: Botrytis cinerea inoculation of Nicotiana benthamiana leaves, lesion area; format: in vivo
[4] = system: Pseudomonas syringae pv. tabaci; assay: Pseudomonas syringae pv. tabaci inoculation of Nicotiana benthamiana leaves, CFU; format: in vivo; details: R0 plant of Nicotiana benthamiana of callus treated with probenazole
[5] = system: Botrytis cinerea; assay: Botrytis cinerea inoculation of tomato leaves, lesion area; format: in vivo; details: regenerated tomato (Micro-Tom) lines, callus treated with 200 μM probenazole; vs WT
[6] = system: rice callus; assay: Callus survival and redifferentiation under probenazole treatment

Row | SMILES | hyphal elongation of rice blast fungus in the leaf sheath / blast resistance [1] | hyphal elongation of Magnaporthe oryzae in the leaf sheath / disease resistance [1] | expression of the WRKY45 gene in callus [2] | Botrytis cinerea resistance ([3]; R1, self-fertilized progeny of R0, Nicotiana benthamiana) | expansion of lesions of Botrytis cinerea ([3]; current generation (R0) of regenerated Nicotiana benthamiana, callus treated with 200 μM probenazole 7 to 21 days, vs wild type) | growth of Pseudomonas syringae pv. tabaci [4] | lesion expansion of Botrytis cinerea in tomato leaves [5] | number of meristems formed in callus and appearance rate of regenerated plants ([6]; compared to control not treated with probenazole) | redifferentiation from callus ([6]; probenazole treatment in dedifferentiation or redifferentiation process) | callus survival rate ([6]; probenazole-treated rice callus vs control callus)
1 | Cc1ccc(NC(=O)c2snnc2C)cc1Cl [tiadinil] | significant blast resistance | significant disease resistance | – | – | – | – | – | – | – | –
2 | N#Cc1ccccc1NC(=O)c1snc(Cl)c1Cl [isothianil, isotianil] | significant blast resistance | significant disease resistance | – | – | – | – | – | – | – | –
3 | CSC(=O)c1cccc2nnsc12 [acibenzolar S-methyl] | significant blast resistance | significant disease resistance | – | – | – | – | – | – | – | –
4 | O=C(O)c1ccccc1O [salicylic acid] | significant blast resistance | significant disease resistance | – | – | – | – | – | – | – | –
5 | C=CCOC1=NS(=O)(=O)c2ccccc21 [probenazole, 3-prop-2-enoxy-1,2-benzothiazole 1,1-dioxide] | significant blast resistance | significant disease resistance | induced | Significant Botrytis cinerea resistance | significantly suppressed | markedly suppressed | significantly suppressed | no significant difference | not inhibited | 100%
